Numbered stars: 1 amine (or outer) side, 2 acyl side, 3 side chain; on linkers, the order of the positions; unused ones are H or OH. Bridge positions count the residues as written; N and C are the ends. Square brackets hold non-standard residues; d marks the D form. Peptide text beside a SMILES is read from it. I, II: the chains in the order shown. ξ: configuration not given here. Phe(4-tBu) = CC(C)(C)c1ccc(C[C@H](N)C(=O)O)cc1; Diglycolyl = O=C(COCC(=O)[*:2])[*:1]; NMeR = CN[C@@H](CCCNC(=N)N)C(=O)O; β3hE = N[C@@H](CCC(=O)O)CC(=O)O; Thr(3ξ) = CC(O)[C@H](N)C(=O)O; Pen = CC(C)(S)[C@H](N)C(=O)O
Tests used:
[1] = molecular target: T1, α4β7 (Mus musculus, UniProt P26011+Q00651); experiment: α4β7 receptor occupancy in whole blood and Peyer's patches after oral dosing; format: in vivo, C57BL/6 mice
T1 construct: mice were euthanized and whole blood/plasma and Peyer's patches were collected; from tissue; host or cells: whole blood and Peyer's patches of C57BL/6 mice
T1 sequence (Q00651 41-1039): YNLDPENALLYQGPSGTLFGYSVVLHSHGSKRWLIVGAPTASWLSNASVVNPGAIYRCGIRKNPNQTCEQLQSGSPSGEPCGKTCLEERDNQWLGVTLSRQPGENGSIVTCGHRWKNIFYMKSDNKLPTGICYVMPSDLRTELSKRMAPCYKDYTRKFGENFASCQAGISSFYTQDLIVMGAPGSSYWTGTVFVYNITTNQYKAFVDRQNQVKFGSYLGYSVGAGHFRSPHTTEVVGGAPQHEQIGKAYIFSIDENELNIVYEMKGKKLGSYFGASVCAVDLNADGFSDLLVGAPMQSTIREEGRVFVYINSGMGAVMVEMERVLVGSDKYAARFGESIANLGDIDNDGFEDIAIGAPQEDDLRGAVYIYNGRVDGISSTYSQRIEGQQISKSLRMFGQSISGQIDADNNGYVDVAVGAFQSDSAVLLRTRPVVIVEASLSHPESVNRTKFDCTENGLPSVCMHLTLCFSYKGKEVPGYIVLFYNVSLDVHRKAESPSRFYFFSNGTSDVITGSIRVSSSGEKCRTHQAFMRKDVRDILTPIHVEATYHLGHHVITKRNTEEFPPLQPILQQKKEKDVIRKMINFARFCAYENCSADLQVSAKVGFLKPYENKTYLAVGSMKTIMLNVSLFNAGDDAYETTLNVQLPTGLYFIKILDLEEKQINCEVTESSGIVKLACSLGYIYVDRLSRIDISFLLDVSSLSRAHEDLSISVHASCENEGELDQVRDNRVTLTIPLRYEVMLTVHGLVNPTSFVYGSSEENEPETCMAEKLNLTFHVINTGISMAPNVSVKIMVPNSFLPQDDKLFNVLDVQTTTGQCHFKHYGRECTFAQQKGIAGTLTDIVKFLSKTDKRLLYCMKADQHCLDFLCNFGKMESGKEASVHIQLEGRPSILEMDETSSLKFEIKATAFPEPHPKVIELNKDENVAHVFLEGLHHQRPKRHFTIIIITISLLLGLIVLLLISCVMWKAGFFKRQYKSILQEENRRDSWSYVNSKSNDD
T1 sequence (P26011 20-806): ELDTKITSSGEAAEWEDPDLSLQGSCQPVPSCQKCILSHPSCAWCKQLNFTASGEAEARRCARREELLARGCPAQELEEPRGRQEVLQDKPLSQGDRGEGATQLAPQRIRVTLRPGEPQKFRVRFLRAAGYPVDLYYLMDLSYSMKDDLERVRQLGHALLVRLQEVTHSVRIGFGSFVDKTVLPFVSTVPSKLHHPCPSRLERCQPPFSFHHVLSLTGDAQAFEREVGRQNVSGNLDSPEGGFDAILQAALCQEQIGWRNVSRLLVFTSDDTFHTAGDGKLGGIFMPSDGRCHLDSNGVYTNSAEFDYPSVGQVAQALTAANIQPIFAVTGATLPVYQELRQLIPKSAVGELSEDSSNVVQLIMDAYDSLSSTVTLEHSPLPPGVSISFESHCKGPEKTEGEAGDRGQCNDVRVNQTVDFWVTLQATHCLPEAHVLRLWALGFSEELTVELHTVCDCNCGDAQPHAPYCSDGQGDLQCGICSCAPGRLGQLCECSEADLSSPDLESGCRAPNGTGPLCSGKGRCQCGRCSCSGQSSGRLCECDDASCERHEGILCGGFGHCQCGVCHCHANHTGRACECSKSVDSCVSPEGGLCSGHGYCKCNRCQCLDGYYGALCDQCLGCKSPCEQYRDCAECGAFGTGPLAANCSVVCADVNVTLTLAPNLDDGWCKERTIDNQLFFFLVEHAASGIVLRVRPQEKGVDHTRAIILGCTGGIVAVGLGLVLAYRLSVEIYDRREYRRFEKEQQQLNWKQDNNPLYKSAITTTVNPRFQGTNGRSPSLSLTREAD
Experimental: One hour following dosing, mice were euthanized and whole blood/plasma and Peyer's patches were collected. Peyer's patches were dispersed in 1 mL RPMI medium with 2% FBS without washing step. Whole blood and single cell suspension of Peyer's patches (100 uL out of 1 mL total) were submitted for flow cytometry to determine α4β7 receptor occupancy. % RO=(1−(% positive test sample/% positive median vehicle control))*100. Plasma and Peyer's patches dispersed in single cell suspension (500 uL of 1 mL total) were also analyzed for drug exposure.

[2] = molecular target: T2, α4β7 (Homo sapiens, UniProt P13612+P26010); experiment: α4β7 internalization / surface expression by flow cytometry; format: cell-based; settings: human PBMCs, 100 nM, 24 h
T2 construct: endogenous in cells
Source text: Blood samples from human donors were obtained from the Stanford Blood Center (Stanford, Calif.) under an RB-approved research protocol. Blood was drawn into BD Vacutainer sodium heparin blood collection tubes (BD Biosciences, Cat #362753). Peripheral blood mononuclear cells (PBMCs) were isolated from blood using a SepMate-50 tube and LymphoPrep per the manufacturer's protocol. CD4^+ T memory cells were enriched after PBMC isolation, using an EasySep kit (StemCell Technologies) per the manufacturer's protocol.
After incubation, an aliquot of cells from each reaction was stained for α4β7 expression.
After incubation, cells were washed extensively to remove excess peptide. For each reaction, an aliquot of cells was stained for α4β7 expression, while a separate aliquot was tested for adhesion to MAdCAM1.
An aliquot of cells were collected before and 24 h post peptide addition and stained for α4β7 expression. Afterwards, cells were extensively washed to remove excess peptide and incubated in fresh complete culture medium (without MnCl2) for an additional seven days. On day 1, 2, 4, 5, and 7 days after peptide washout, aliquots were stained for α4β7 expression.
Following peptide incubation, an aliquot of each reaction was stained for surface expression of α4β7 in preparation for flow cytometry. Cells were stained at 4° C. for 30 minutes, washed twice in DPBS containing 0.5% BSA (PBS/BSA), incubated with streptavidin BV421 (diluted 1:1000) at 4° C. for 30 minutes, washed twice in PBS/BSA, and then resuspended in PBS/BSA for analysis. Where relevant, a “fluorescence minus one” (FMO) sample was used as the staining control.
Samples were analyzed by flow cytometry on a BD (Franklin Lakes, N.J.) FACSVerse flow cytometer equipped with the following lasers: 405 nm (violet), 488 nm (blue), 561 nm (yellow-green), and 640 nm (red). CD4^+ T memory cells were identified as CD4^+, […], CD197^+ lymphocytes. α4β7 expression within CD4^+ T memory cells was identified based on staining with the Vedolizumab BV421 complex; staining was analyzed using BD FACSuite software, version 1.0.5. Where applicable, values were normalized to no-peptide controls and expressed as percentages to permit assessment of changes in the indicated parameter. Data were plotted and analyzed using Prism software (version 7; GraphPad, La Jolla, Calif.).

[3] = molecular target: T3, α4β7 integrin (Homo sapiens, UniProt P13612+P26010); experiment: Inhibition of MAdCAM1-mediated CD4+ T cell proliferation (plate bound anti-CD3 + MAdCAM1); format: cell-based; settings: Compound A 1 uM, inactive analog 1 uM, vedolizumab 500 ng/mL; three days
T3 construct: endogenous in cells; host or cells: primary human CD4+ T cells enriched from PBMCs of healthy donors
Experimental: PBMCs were purified from healthy human donors and enrichment of CD4+ T cells was performed. […] Phenotype, distribution of T-helper (Th) subsets and % RO analyses were conducted by flow cytometry of freshly stained live samples.

[4] = molecular target: α4β7 integrin (mouse, on cells of whole blood and Peyer's patches) (mouse) (UniProt Q00651); experiment: flow cytometry α4β7 receptor occupancy in Peyer's patches, mice dosed orally 3 or 30 mg/kg
α4β7 integrin (mouse, on cells of whole blood and Peyer's patches) (mouse), sequence (Q00651 41-1039, chain 1 of 2): as the sequence (Q00651 41-1039) above
α4β7 integrin (mouse, on cells of whole blood and Peyer's patches) (mouse), sequence (P26011 20-806, chain 2 of 2, further chain): as the sequence (P26011 20-806) above

CC(=O)N[C@@H]1C(=O)N(C)[C@@H](CCCNC(=N)N)C(=O)N[C@@H](CO)C(=O)N[C@@H](CC(=O)O)C(=O)N[C@@H](C(C)O)C(=O)N[C@@H](CC(C)C)C(=O)N[C@H](C(=O)N[C@@H](Cc2ccc(C(C)(C)C)cc2)C(=O)N[C@@H](CCC(=O)O)CC(=O)N[C@H](CCCCNC(=O)COCC(=O)NCCCC[C@@H](NC(=O)C[C@H](CCC(=O)O)NC(=O)[C@H](Cc2ccc(C(C)(C)C)cc2)NC(=O)[C@H]2NC(=O)[C@H](CC(C)C)NC(=O)[C@H](C(C)O)NC(=O)[C@H](CC(=O)O)NC(=O)[C@H](CO)NC(=O)[C@H](CCCNC(=N)N)N(C)C(=O)[C@@H](NC(C)=O)C(C)(C)SSC2(C)C)C(N)=O)C(N)=O)C(C)(C)SSC1(C)C (stereo partly drawn) [Compound B, (Ac-Pen-(N-Me-Arg)-Ser-Asp-Thr-Leu-Pen-(Phe(4-tBu))-(β-homo-Glu)-(D-Lys)-NH2)2 (SEQ ID NO. 6) with linker=DIG (diglycolic acid)] (I: Ac-[Pen][NMeR]SD[Thr(3ξ)]L[Pen][Phe(4-tBu)][β3hE][dK]-NH2 / II: Ac-[Pen][NMeR]SD[Thr(3ξ)]L[Pen][Phe(4-tBu)][β3hE][dK]-NH2; disulfide I:1-I:7, II:1-II:7; linker I:10-II:10 via Diglycolyl)
receptor occupancy in Peyer's patches ([1]; 3 and 30 mg/kg PO, 1 h post dose, some animals): 100%
receptor occupancy in whole blood and Peyer's patches, 30 mg/kg vs 3 mg/kg dose group ([1]; PO): comparable
receptor occupancy in Peyer's patches compared to whole blood ([1]; both dose groups (3 and 30 mg/kg PO)): significantly higher
internalization of α4β7 [2]: caused internalization of α4β7

vedolizumab: intravenously administered humanized IgG monoclonal antibody directed against α4β7 [reference compound]
inhibition of MAdCAM1-mediated proliferation of CD4+ T-cells [3]: level of inhibition was similar to inhibition by vedolizumab

B1: Compound B (peptide)
peptide: Ac-[Pen][NMeR]SDTL[Pen][Phe(4-tBu)][β3hE][dK]-NH2
modifications: disulfide 1-7; also: homodimer linked through D-Lys residues by diglycolic acid (DIG)
receptor occupancy (%) [4]: 100%

Source: patent US20230063321A1, “Methods for Treating Inflammatory Bowel Diseases with alpha4beta7 Integrin Antagonists” (Protagonist Therapeutics, Inc., priority 2020, published 2023)
